According to ChEMBL document CHEMBL3864123, “Drug discovery strategies to outer membrane targets in Gram-negative pathogens” (Bioorg Med Chem, 2016):
pKd: −log10 of the molar value. Converted amounts (≈) assume the structure as drawn. One block for each compound: values may come before it. *1 amine or outer side, *2 acyl side, *3 side chain or, on linkers, in order; H or OH if unused. Where a SMILES comes first, the peptide text is derived from it. Bridges are numbered along the chain shown (N, C = ends). [ ]: non-standard residue; d: D form. The star is where a group is joined. X1 = CC(C)=CCc1ccc(Cl)c2[nH]cc(CC(N[*:1])C(=O)[*:2])c12; Trp(7-Cl) = N[CH](Cc1c[nH]c2c(Cl)cccc12)C(=O)O; Malonyl = O=C(CC(=O)[*:2])[*:1]; Cya = N[CH](CS(=O)(=O)O)C(=O)O; dDab = NCC[C@@H](N)C(=O)O; Octanoyl = CCCCCCCC(=O)*; Orn = NCCC[C@H](N)C(=O)O; Dab = NCC[C@H](N)C(=O)O

What was measured:
Escherichia coli [1] = experiment: Antibacterial activity against tolC-deficit Escherichia coli in presence of human serum albumin; assay type: functional
Escherichia coli [2] = experiment: Antibacterial activity against wild-type Escherichia coli; assay type: functional
Escherichia coli [3] = experiment: Antibacterial activity against tolC-deficit Escherichia coli measured after 16 hrs by serial dilution method; assay type: functional
Escherichia coli [4] = experiment: Antibacterial activity against acrAB-efflux pump deficit Escherichia coli; assay type: functional
Escherichia coli [5] = experiment: Antibacterial activity against Escherichia coli by agar dilution method; assay type: functional
[6] = Selectivity ratio of MIC for Staphylococcus epidermidis PAS9001 harboring SPase S29P mutant to MIC for Staphylococcus epidermidis RP62A; assay type: functional
[7] = tested on: Staphylococcus epidermidis; experiment: Antibacterial activity against Staphylococcus epidermidis RP62A harboring wild-type SPase by CLSI microbroth dilution method; assay type: functional
[8] = tested on: Staphylococcus epidermidis; experiment: Antibacterial activity against Staphylococcus epidermidis PAS8001 harboring SPase P29S mutant by CLSI microbroth dilution method; assay type: functional
Escherichia coli [9] = experiment: Antibacterial activity against Escherichia coli PAS0232 harboring SPase P84S mutant by CLSI microbroth dilution assay; assay type: functional
[10] = tested on: Staphylococcus epidermidis; experiment: Antibacterial activity against Staphylococcus epidermidis PAS9001 harboring SPase S29P mutant by CLSI microbroth dilution assay; assay type: functional
Pseudomonas aeruginosa [11] = experiment: Antibacterial activity against Pseudomonas aeruginosa PAS2006 harboring SPase P84S mutant by CLSI microbroth dilution assay; assay type: functional
Pseudomonas aeruginosa [12] = experiment: Antibacterial activity against Pseudomonas aeruginosa ATCC 27853 by microdilution method; assay type: functional
[13] = Hemolytic activity against human RBC; assay type: ADME, cell-based; conditions: erythrocyte
Pseudomonas aeruginosa [14] = experiment: Potentiation of colistin-induced antibacterial activity against Pseudomonas aeruginosa PAO1 infected in BALB/c mouse assessed as log reduction in bacterial burden in lungs at 2.08 mg/kg, it measured after 6 hrs by serial dilution method; assay type: functional, Lung
Staphylococcus aureus [15] = experiment: Antibacterial activity against methicillin-resistant Staphylococcus aureus by CLSI broth dilution method; assay type: functional
Escherichia coli [16] = experiment: Antibacterial activity against Escherichia coli after 16 to 20 hrs by agar well diffusion method; assay type: functional
Pseudomonas aeruginosa [17] = experiment: Antibacterial activity against Pseudomonas aeruginosa; assay type: functional
Staphylococcus aureus [18] = experiment: Antibacterial activity against Staphylococcus aureus; assay type: functional
Acinetobacter baumannii = experiment: Antibacterial activity against Acinetobacter baumannii; assay type: functional
[19] = Inhibition of Escherichia coli His6-tagged LpxD after 15 mins by fluorescence polarization assay
[20] = Inhibition of Escherichia coli LpxA after 15 mins by fluorescence polarization assay
Escherichia coli [21] = experiment: Antibacterial activity against wild-type Escherichia coli measured after 16 hrs by serial dilution method; assay type: functional
Pseudomonas aeruginosa [22] = experiment: Antibacterial activity against wild-type Pseudomonas aeruginosa measured after 16 hrs by serial dilution method; assay type: functional
Pseudomonas aeruginosa [23] = experiment: Antibacterial activity against MexABCDXY-deficit Pseudomonas aeruginosa measured after 16 hrs by serial dilution method; assay type: functional
Pseudomonas aeruginosa [24] = experiment: Antibacterial activity against Pseudomonas aeruginosa PAO1 measured after 16 to 20 hrs by microbroth dilution assay; assay type: functional

Compound: CCCCCCCCCCCCCCCC(=O)N(C)[C@H](CO)C(=O)N[C@H](C)C(=O)NCC(=O)N(C)[C@@H]1C(=O)N[C@@H](C)C(=O)N[C@@H](C(=O)O)Cc2ccc(O)c(c2)-c2cc1ccc2O
- Ratio [6]: 32
- MIC [7]: 0.25 µg/mL (≈ 0.284 µM)
- MIC [8]: 2 µg/mL (≈ 2.27 µM)
- MIC (Escherichia coli [9]): 4 µg/mL (≈ 4.54 µM)
- MIC [10]: 8 µg/mL (≈ 9.08 µM)
- MIC (Pseudomonas aeruginosa [11]): 8 µg/mL (≈ 9.08 µM)

Compound: CC[C@H](C)[C@@H]1NC(=O)[C@H](Cc2c[nH]c3ccccc23)NC(=O)[C@H]([C@@H](C)O)NC(=O)[C@@H]2CCCN2C(=O)[C@H]2CCCN2C(=O)[C@H](CO)NC(=O)[C@H](C)NC(=O)[C@H](CCN)NC(=O)[C@H](CCN)NC(=O)[C@H](Cc2c[nH]c3ccccc23)NC(=O)[C@H](CCN)NC(=O)[C@@H](CCN)NC(=O)[C@H](CCCN)NC(=O)[C@H](CCN)NC1=O [MUREPAVADIN] (cyclo(TWI[Dab][Orn][dDab][Dab]W[Dab][Dab]AS[dP]P))
- MIC (Pseudomonas aeruginosa [12]): 0.008 µg/mL (≈ 0.00515 µM)

Compound: CC[C@H](C)[C@@H]1NC(=O)[C@H](Cc2c[nH]c3ccccc23)NC(=O)[C@H]([C@@H](C)O)NC(=O)[C@@H]2CCCN2C(=O)[C@H]2CCCN2C(=O)[C@H](CCN)NC(=O)[C@H](C)NC(=O)[C@H](CCN)NC(=O)[C@H](CCN)NC(=O)[C@H](Cc2c[nH]c3ccccc23)NC(=O)[C@H](CCN)NC(=O)[C@@H](CCN)NC(=O)[C@H](CCCCN)NC(=O)[C@H](CCN)NC1=O (cyclo(TWI[Dab]K[dDab][Dab]W[Dab][Dab]A[Dab][dP]P))
- Activity [13]: > 100 µg/mL

Compound: CC[C@H](C)[C@H](NC(=O)[C@@H](N)Cc1ccccc1)C(=O)N[C@@H](CCCNC(=N)N)C(=O)N[C@@H](CC(C)C)C(N)=O (H-FIRL-NH2)
- Activity (Pseudomonas aeruginosa [14]): 1 log10CFU/ml

Compound: CC(C)=CCc1ccc(Cl)c2[nH]cc(CC3NC(=O)C(Cc4c[nH]c5c(Cl)cccc45)NC(=O)C4CCCN4C(=O)C(CS(=O)(=O)O)NC(=O)C(NC(=O)C(NC(=O)C(C)NC(=O)CC(=O)O)C(C)C)COC(=O)C(CO)NC(=O)C(CC(C)C)NC(=O)C(C(C)C)NC3=O)c12 (configuration not stated) (Malonyl-AVS[Cya]P[Trp(7-Cl)][X1]VLS; ester 3-C; configuration not given here)
- MIC (Staphylococcus aureus [15]): 0.5 to 128 µg/mL (≈ 0.357 to 91.4 µM)

Compound: CCCC(C)/C=C(/C)C(=O)OC(CCCCCCC/C=C/C(=O)NCCC(=O)NC(CS(=O)(=O)O)C(=O)N(C)C1C(=O)NC(C)C(=O)NC(C(=O)O)Cc2ccc(OS(=O)(=O)O)c(c2)-c2cc1cc(OS(=O)(=O)O)c2OC1O[C@H](C)[C@@H](O)[C@H](O)[C@@H]1O)CCC(C)C (some centres not stated)
- MIC (Staphylococcus aureus [15]): 16 to 128 µg/mL (≈ 11.9 to 94.9 µM)

Compound: CC[C@H](C)[C@@H]1NC(=O)[C@H](CCCNC(=N)N)NC(=O)[C@H](Cc2cc3ccccc3[nH]2)NC(=O)[C@@H]2CCCN2C(=O)[C@H]2CCCN2C(=O)[C@H](CCCNC(=N)N)NC(=O)[C@H](CCCNC(=N)N)NC(=O)[C@H](CC(C)C)NC(=O)[C@H](CCCNC(=N)N)NC(=O)[C@H](CCCCN)NC(=O)[C@H](Cc2c[nH]c3ccccc23)NC(=O)[C@@H](CCCNC(=N)N)NC(=O)[C@H]([C@@H](C)CC)NC(=O)[C@H](CCCNC(=N)N)NC1=O
- MIC (Escherichia coli [2]): 0.25 µg/mL (≈ 0.127 µM)
- MIC (Pseudomonas aeruginosa [17]): 4 µg/mL (≈ 2.03 µM)
- MIC (Staphylococcus aureus [18]): 2 µg/mL (≈ 1.01 µM)
- MIC (Acinetobacter baumannii): 1 µg/mL (≈ 0.507 µM)

Compound: H-TNLYMLPKWDIP-NH2
- pKd [19]: 5.22
- pKd [20]: 4.70

Compound: C[C@@H](O)[C@H](NC(=O)c1ccc(C#Cc2ccc(CN3CCOCC3)cc2)cc1)C(=O)NO
- MIC (Pseudomonas aeruginosa [24]): 1 µg/mL (≈ 2.29 µM)

Further lines, results first:

- MIC (Escherichia coli [1]): 4 µg/mL
- MIC (Escherichia coli [2]): 32 µg/mL (≈ 95.4 µM)
- MIC (Escherichia coli [3]): 0.25 µg/mL (≈ 0.745 µM)
Compound: CC(C)(C)c1nc(-c2ccc3c(c2)OCCO3)c(-c2ccncc2)[nH]1

- MIC (Escherichia coli [4]): 8 µg/mL (≈ 41.6 µM)
- MIC (Escherichia coli [2]): 16 µg/mL (≈ 83.2 µM)
Compound: Sc1ccccc1C1=NCCCN1

- MIC (Escherichia coli [5]): 6.25 µg/mL (≈ 10 µM)
Compound: CCC[C@@H]1OC(=O)[C@@H](C)C[C@H](C)CCCCC(=O)CCC[C@@H](CC)/C=C/C=C(\COC)CC[C@@H](O)[C@@H](O)C[C@H](O)CNC1=O

- MIC (Escherichia coli [5]): 3.12 µg/mL (≈ 4.98 µM)
Compound: CCC[C@@H]1OC(=O)[C@@H](C)C[C@H](C)CCCCC(=O)CCC[C@@H](CC)CC/C=C(\COC)CC[C@@H](O)[C@@H](O)C[C@H](O)CNC1=O

- MIC (Escherichia coli [1]): 16 µg/mL
- MIC (Escherichia coli [2]): 8 µg/mL (≈ 23.2 µM)
- MIC (Escherichia coli [3]): < 0.063 µg/mL
Compound: Fc1ccc(COc2cccc(-c3n[nH]cc3-c3ccncc3)c2)cc1

- MIC (Pseudomonas aeruginosa [12]): 0.25 µg/mL (≈ 0.677 µM)
Compound: CC(C)(N)[C@H](NC(=O)c1ccc(C#CC#C[C@@H]2C[C@H]2CO)cc1)C(=O)NO [ACHN-975]

- MIC90 (Escherichia coli [16]): 1 µg/mL (≈ 0.929 µM)
Compound: CCCCCCCC(=O)N[C@H](C(=O)N[C@@H](CO)C(=O)N[C@H]1CCNC(=O)[C@H]([C@@H](C)O)NC(=O)[C@H](CCN)NC(=O)[C@H](CCN)NC(=O)[C@H](CC(C)C)NC(=O)[C@@H](Cc2ccccc2)NC(=O)[C@H](CCN)NC1=O)[C@@H](C)O (Octanoyl-TS[Dab][Dab][dF]L[Dab][Dab]T; lactam 3-C)

- MIC (Escherichia coli [4]): 8 µg/mL (≈ 34 µM)
- MIC (Escherichia coli [2]): 16 µg/mL (≈ 68 µM)
Compound: CN(C)c1ccc(C2=NCCCN2)c(S)c1

- MIC (Escherichia coli [5]): 1.56 µg/mL (≈ 2.19 µM)
Compound: CCCCCCCCCC[C@H]1OC(=O)CNC(=O)[C@H]([C@@H](C)O)NC(=O)[C@H](CO)NC(=O)[C@H]([C@H](C)CC)NC(=O)[C@H](CC(C)C)N(C)C(=O)[C@@H]1C

- MIC (Escherichia coli [21]): > 32 µg/mL
- MIC (Pseudomonas aeruginosa [22]): 4 µg/mL (≈ 17 µM)
- MIC (Escherichia coli [3]): > 32 µg/mL
- MIC (Pseudomonas aeruginosa [23]): 1 µg/mL (≈ 4.25 µM)
Compound: N=C(N)SCc1ccc(Cl)c(Cl)c1
